Paper PMC8729770, “In Vitro Evaluation of Antimicrobial Peptides from the Black Soldier Fly (Hermetia Illucens) against a Selection of Human Pathogens” (Microbiology Spectrum, 2022)
Like-named read-outs stand apart in the source and are kept apart here. Ends that are not written are not given here.

Tests used:
[1] = system: M. tuberculosis ATCC 25177 (H37Ra); details: for IC50: read-out: IC50 M. tuberculosis ATCC 25177 (H37Ra), starting at 32 μM, 5×10^5 CFU/mL, 7 days, 37°C, resazurin; for MIC M. tuberculosis ATCC 25177 (H37Ra): visual
[2] = system: E. coli ATCC 8739; details: ATCC 8739, 16 h
[3] = system: B. cenocepacia LMG 16656; details: for IC50: read-out: IC50 B. cenocepacia LMG 16656, starting at 32 μM, 10^5 CFU/mL, 48 h, 37°C, resazurin; for MIC B. cenocepacia LMG 16656: visual
[4] = system: P. aeruginosa ATCC 15442; details: ATCC 15442, 16 h
[5] = system: K. pneumoniae ATCC 13883; details: ATCC 13883, 16 h
[6] = system: E. coli ATCC 8739; format: cell-based, Escherichia coli; details: ATCC 8739, 16 h
Procedure: To detect antimicrobial activity of the BSF AMPs, the peptide library underwent screening against a panel of microorganisms, consisting of S. aureus ATCC 6538, E. coli ATCC 8739, P. aeruginosa ATCC 9027, C. albicans B59630, and A. fumigatus B42928. Serial dilutions of the peptides were prepared from the DMSO stock solutions in sterile demineralized water in 96-well plates using an automated liquid-handling workstation (Beckman Coulter Biomek 3000) in end volumes of 10 μL. The final in-plate concentration of DMSO was <1%. Peptide concentrations ranged from 64 μM to 0.25 μM for the first evaluation, and from 32 μM to 0.016 μM for the independent repeat. As references, doxycycline (Sigma-Aldrich; S. aureus, E. coli, P. aeruginosa), flucytosine (Sigma-Aldrich; C. albicans), and econazole (Sigma-Aldrich; A. fumigatus) were used. Suspensions of a starting inoculum of 5 × 10^3 CFU/mL (E. coli, S. aureus, C. albicans, A. fumigatus) and 5 × 10^4 CFU/mL (P. aeruginosa) were prepared in MHB (bacterial species) or RPMI medium (fungal species) and 190 μL was added to the 96-well plates. Plates were incubated for 16 h (E. coli, S. aureus, P. aeruginosa), 24 h (C. albicans), or 48 h (A. fumigatus) at 37°C. After incubation, read-out of the antimicrobial activity was performed using a resazurin assay. Then, 20 μL of a 0.01% (wt/vol) resazurin (Sigma-Aldrich) solution was added to each well and plates were incubated for 15 min (S. aureus), 30 min (E. coli), 45 min (P. aeruginosa), 4 h (C. albicans), or 17 h (A. fumigatus) to allow resazurin reduction to take place. Fluorescence was read using a microplate reader (Telix) at λexcitation = 550 nm and λemission = 590. […] MIC values were determined visually. Medium in the wells with no visual growth was plated on MHA to detect the MBC, defined as ≥3 log reduction compared with the growth control.

[7] = system: preformed P. aeruginosa ATCC 15442 biofilm; experiment: Biofilm eradication (postexposure); format: cell-based, Pseudomonas aeruginosa; details: at 64 μM and 128 μM; resazurin
Procedure: After 16 h of incubation at 37°C and shaking at 110 rpm (New Brunswick Innova 4300), a resazurin assay was used as described by Gilbert-Girard et al. to determine the viability of the bacterial cells in the biofilm ([79]). After incubation, the growth medium was removed from the well plates and the bacterial biofilms were washed once with PBS to remove remaining planktonic cells. […] The fluorescence of the wells was measured at λexcitation = 550 nm and λemission = 590 using a microplate reader (Promega). Afterwards, a crystal violet staining was applied to determine the biomass of the biofilms ([79]). The resazurin solution was removed from the well plates and 200 μL of 100% ethanol (VWR Chemicals) was added to fix the biofilms. After 15 min of incubation, the ethanol was discarded from the wells and the plates were left to air dry for 30 min. […] The staining solution was removed after 5 min and the biofilms were washed with PBS. After air-drying for 10 min, the crystal violet stain was solubilized in 200 μL of 100% ethanol. […] The experiment was carried out three times. Polymyxin B sulfate (Sigma-Aldrich) was included as a reference. […] The next day, bacterial viability and biomass were determined with a resazurin assay and crystal violet assay as described earlier. […]

| Substance | IC50 ([1]; repeat 1) [µM] | IC50 ([1]; repeat 2) [µM] | MIC M. tuberculosis ATCC 25177 (H37Ra) ([1]; repeat 1) [µM] | MIC M. tuberculosis ATCC 25177 (H37Ra) ([1]; repeat 2) [µM] | IC50 [2] [µM] | IC50 ([3]; repeat 1) [µM] | IC50 ([3]; repeat 2) [µM] | MIC B. cenocepacia LMG 16656 ([3]; repeat 1) [µM] | MIC B. cenocepacia LMG 16656 ([3]; repeat 2) [µM] | MIC P. aeruginosa ATCC 15442 [4] [µM] | MIC K. pneumoniae [5] [µM] | MIC E. coli ATCC 8739 [6] [µM] | reduction in viability of preformed biofilm [7] |
| --- | --- | --- | --- | --- | --- | --- | --- | --- | --- | --- | --- | --- | --- |
| SWWKKVFKPVEKLGQRVRDATIQGIGIAQQGANVLATVRGGPPQ-NH2 [Hill-Cec1] | > 32 | > 32 | >32 | >32 | 0.15 | > 32 | > 32 | >32 | >32 | 1 | 0.25 to 0.5 | 0.25 |  |
| polymyxin B [reference compound] |  |  |  |  |  |  |  |  |  |  |  |  | over 70% |
